Measurements published in ChEMBL document CHEMBL1201862, “PubChem BioAssay data set” (2004).
Calls of active or inactive are those of the source.

Legend:
[1] = biological target: DNA dC->dU-editing enzyme APOBEC-3A (Homo sapiens, UniProt P31941); test: APOBEC3A DNA deaminase inhibitors, dose response, biochemical (AID 504722); type: functional
[2] = biological target: DNA dC->dU-editing enzyme APOBEC-3G (Homo sapiens, UniProt Q9HC16); test: Dose Response confirmation of small molecule APOBEC3G DNA Deaminase Inhibitors via a fluorescence-based single-stranded DNA deaminase assay. [Related pubchem assays (depositor defined):AID493012, AID493028]; type: functional
[3] = HepG2 cell cytotoxicity, dose response, cytotoxicity control for Shn3 inhibitor project, CellTiter-Glo, cherry-picked (AID 624134); type: functional, cell-based
INS1 = test: beta cell apoptosis inhibitors, cytokine rescue, dose response, luminescence, retest (AID 449756); type: functional, cell-based; settings: Rattus norvegicus;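 further: cell death triggered by IL-1 beta plus TNF-alpha plus IFN-gamma mixture; protective hits raise ATP signal compared with cytokine alone wells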
HEK293 = test: inhibitors of LMP1-driven NF-kB reporter, dose response, cell-based, HEK293, luciferase, cherry-pick (AID 588343); type: functional; settings: Homo sapiens
[4] = Shn3 3'UTR reporter inhibitors, dose response, cell-based, Clone20 osteoblasts, firefly luciferase, cherry-picked (AID 624132); type: functional;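 further: firefly luciferase luminescence from reporter carrying the Shn3 3'UTR in osteoblasts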
[5] = control 3'UTR Renilla luciferase suppression, dose response, counter-screen for Shn3 inhibitor project, cell-based, Clone20-Shn3RL, cherry-picked (AID 624133); type: functional
[6] = cytotoxicity in HPDE-C7 cells, cell-based, fluorescence, HTS (AID 430); type: functional; settings: Homo sapiens
[7] = cytotoxicity in KRAS-transformed pancreatic duct cells, primary screen, cell-based, fluorescence, HTS (AID 431); type: functional; settings: Homo sapiens;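 further: cell line used: HPDE-C7K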
Fatty acid synthase [8] = biological target: T1, Fatty acid synthase (Homo sapiens, UniProt P49327); test: FAS thioesterase domain inhibitors, dose response, biochemical, kinetic fluorescence intensity (AID 624326); type: functional;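 further: rate of fluorescence rise from hydrolysis of a fluorogenic O-methyl fluorescein ester substrate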
Fatty acid synthase [9] = biological target: T1, Fatty acid synthase; test: FAS thioesterase domain inhibitors, dose response, biochemical, endpoint fluorescence intensity, uHTS hits (AID 624327); type: functional;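 further: fluorescence from hydrolysis of an O-methyl fluorescein acyl ester substrate by the enzyme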
[10] = biological target: T2, Low molecular weight phosphotyrosine protein phosphatase (Homo sapiens, UniProt P24666); type: functional; settings: read-out: IC50_Mean;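 further: Dose-response confirmation assay measuring inhibition of LMPTP enzyme activity by fluorescence intensity read-out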
T2 sequence (P24666 whole entry): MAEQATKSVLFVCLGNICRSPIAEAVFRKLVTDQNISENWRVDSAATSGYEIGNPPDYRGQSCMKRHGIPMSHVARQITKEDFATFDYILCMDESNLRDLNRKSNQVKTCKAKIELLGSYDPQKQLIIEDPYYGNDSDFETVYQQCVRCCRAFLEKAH

[11] = biological target: T3, Histone-lysine N-methyltransferase NSD2 (Homo sapiens, UniProt O96028); type: biochemical
T3 sequence (O96028 whole entry): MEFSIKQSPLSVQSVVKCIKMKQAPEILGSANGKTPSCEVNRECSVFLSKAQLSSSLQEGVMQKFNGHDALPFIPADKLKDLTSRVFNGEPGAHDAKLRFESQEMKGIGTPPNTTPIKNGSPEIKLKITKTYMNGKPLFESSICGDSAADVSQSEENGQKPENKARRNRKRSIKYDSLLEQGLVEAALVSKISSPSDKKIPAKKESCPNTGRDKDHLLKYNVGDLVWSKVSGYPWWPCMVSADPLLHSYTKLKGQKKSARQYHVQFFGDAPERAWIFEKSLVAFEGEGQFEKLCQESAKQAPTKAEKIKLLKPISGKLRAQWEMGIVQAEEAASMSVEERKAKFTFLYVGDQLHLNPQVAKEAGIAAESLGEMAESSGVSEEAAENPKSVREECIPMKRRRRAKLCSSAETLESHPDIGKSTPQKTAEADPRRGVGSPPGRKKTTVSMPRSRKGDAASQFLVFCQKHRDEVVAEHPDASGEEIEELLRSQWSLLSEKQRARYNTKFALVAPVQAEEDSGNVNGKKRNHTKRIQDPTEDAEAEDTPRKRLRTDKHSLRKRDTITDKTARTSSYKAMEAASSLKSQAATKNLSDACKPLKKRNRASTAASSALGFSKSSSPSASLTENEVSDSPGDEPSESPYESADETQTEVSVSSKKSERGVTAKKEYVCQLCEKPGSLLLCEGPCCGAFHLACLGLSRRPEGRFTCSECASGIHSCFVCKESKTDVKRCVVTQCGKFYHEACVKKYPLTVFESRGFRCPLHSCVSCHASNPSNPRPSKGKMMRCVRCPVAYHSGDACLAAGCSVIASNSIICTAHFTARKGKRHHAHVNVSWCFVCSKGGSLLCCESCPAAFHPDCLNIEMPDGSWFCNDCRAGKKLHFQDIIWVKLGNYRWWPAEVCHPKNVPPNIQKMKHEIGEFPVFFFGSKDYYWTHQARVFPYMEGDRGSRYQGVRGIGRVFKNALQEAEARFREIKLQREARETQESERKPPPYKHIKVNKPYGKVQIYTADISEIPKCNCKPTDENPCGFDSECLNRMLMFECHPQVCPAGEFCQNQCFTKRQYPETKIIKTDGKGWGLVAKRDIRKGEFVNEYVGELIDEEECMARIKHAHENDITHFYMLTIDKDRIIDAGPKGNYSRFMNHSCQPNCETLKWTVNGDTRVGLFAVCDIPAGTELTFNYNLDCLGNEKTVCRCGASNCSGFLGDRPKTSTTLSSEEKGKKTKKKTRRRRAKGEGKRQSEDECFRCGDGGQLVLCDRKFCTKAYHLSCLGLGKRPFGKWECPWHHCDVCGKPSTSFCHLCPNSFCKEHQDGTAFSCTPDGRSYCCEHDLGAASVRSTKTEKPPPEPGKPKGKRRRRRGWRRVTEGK

Prothrombin = Prothrombin (Bos taurus, UniProt P00735); test: thrombin inhibition, dose response, biochemical, fluorescence polarization, uHTS hits (AID 602369); type: functional
[12] = biological target: 26S proteasome non-ATPase regulatory subunit 14 (Homo sapiens, UniProt O00487); test: inhibition of proteasome subunit RPN11 – biochemical, fluorescence polarization, uHTS hits, confirmation (AID 602368); type: functional
[13] = biological target: 72 kDa type IV collagenase (Homo sapiens, UniProt P08253); test: Dose Response validation of uHTS RPN11 inhibitor hits using a MMP-2 Fluorescence assay.; type: functional
[14] = Luminescence Cell-Based Dose Response to Identify Activators of 5'UTR Stem-Loop Driven Prion Protein mRNA Translation in H4-C Neuroglioblastoma Cells. [Related pubchem assays: 1829 (Project Summary), 1814 (Primary HTS)]; type: functional
H4 = test: Luminescence Cell-Based Dose Response HTS to Identify Activators of 5'UTR Stem-Loop Driven Prion Protein mRNA Translation in H4 Neuroglioblastoma Cells. [Related pubchem assays: 1829 (Project Summary), 1814 (Primary HTS)]; type: functional; settings: Homo sapiens
[15] = Luminescence Cell-Based Dose Confirmation to Identify Activators of 5'UTR Stem-Loop Driven Alpha-Synuclein mRNA Translation in H4 Neuroglioblastoma Cells. [Related pubchem assays: 1829 (Project Summary), 1814 (Primary HTS)]; type: functional
[16] = Luminescence Cell-Based Dose Response to Identify Activators of Luciferase Translation or Activity in H4-C Neuroglioblastoma Cells. [Related pubchem assays: 1829 (Project Summary), 1814 (Primary HTS)]; type: functional
[17] = Luminescence Cell-Based Dose Response HTS to Identify Activators of Luciferase Translation or Activity in H4 […] Cells. [Related pubchem assays: 1829 (Project Summary), 1814 (Primary HTS)]; type: functional
[18] = growth suppression of PTEN-null colon cells, dose response, cell-based, HCT116 PTEN knockout (AID 1047); type: functional;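 further: HCT116 colon tumor cells with PTEN knocked out; cells exposed to compound for 60 hours before readout; potency for loss of cell viability measured by luminescence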
[19] = inhibitors of firefly luciferase expression or activity, dose response, H4 neuroglioma cells, luminescence (AID 1990); type: functional, cell-based
[20] = growth suppression of beta-catenin-knockout colon cells, dose response, cell-based, HCT116, human colon tumor (AID 1045); type: functional;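 further: HCT116 colon tumor cells with beta catenin knocked out; cells exposed to compound for 60 hours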
[21] = inhibitors of SNCA 5'UTR-driven reporter translation, confirmation, H4 neuroglioma cells, luminescence (AID 1988); type: functional, cell-based
[22] = Luminescence Cell-Based Dose Response HTS to Identify Inhibitors of 5'UTR Stem-Loop Driven Prion Protein mRNA Translation in H4 Neuroglioblastoma Cells. [Related pubchem assays: 1827 (Project Summary), 1813 (Primary HTS)]; type: functional
[23] = biological target: Induced myeloid leukemia cell differentiation protein Mcl-1 (Homo sapiens, UniProt Q07820); type: functional
[24] = Luminescence Cell-Based Dose Confirmation HTS to Identify Activators of 5'UTR Stem-Loop Driven Alpha-Synuclein mRNA Translation in H4 Neuroglioblastoma Cells. [Related pubchem assays: 1829 (Project Summary), 1814 (Primary HTS)]; type: functional

Chain of 26S proteasome non-ATPase regulatory subunit 14 (O00487 whole entry): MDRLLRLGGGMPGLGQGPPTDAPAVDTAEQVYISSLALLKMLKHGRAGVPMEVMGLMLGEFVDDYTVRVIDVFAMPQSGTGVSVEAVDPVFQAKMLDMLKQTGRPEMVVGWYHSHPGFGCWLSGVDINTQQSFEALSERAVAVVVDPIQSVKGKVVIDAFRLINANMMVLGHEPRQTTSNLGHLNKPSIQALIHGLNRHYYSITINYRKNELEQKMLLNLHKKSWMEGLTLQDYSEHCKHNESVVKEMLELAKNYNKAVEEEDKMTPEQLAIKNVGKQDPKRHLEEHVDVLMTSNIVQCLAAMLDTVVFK
Chain of 72 kDa type IV collagenase (P08253 whole entry): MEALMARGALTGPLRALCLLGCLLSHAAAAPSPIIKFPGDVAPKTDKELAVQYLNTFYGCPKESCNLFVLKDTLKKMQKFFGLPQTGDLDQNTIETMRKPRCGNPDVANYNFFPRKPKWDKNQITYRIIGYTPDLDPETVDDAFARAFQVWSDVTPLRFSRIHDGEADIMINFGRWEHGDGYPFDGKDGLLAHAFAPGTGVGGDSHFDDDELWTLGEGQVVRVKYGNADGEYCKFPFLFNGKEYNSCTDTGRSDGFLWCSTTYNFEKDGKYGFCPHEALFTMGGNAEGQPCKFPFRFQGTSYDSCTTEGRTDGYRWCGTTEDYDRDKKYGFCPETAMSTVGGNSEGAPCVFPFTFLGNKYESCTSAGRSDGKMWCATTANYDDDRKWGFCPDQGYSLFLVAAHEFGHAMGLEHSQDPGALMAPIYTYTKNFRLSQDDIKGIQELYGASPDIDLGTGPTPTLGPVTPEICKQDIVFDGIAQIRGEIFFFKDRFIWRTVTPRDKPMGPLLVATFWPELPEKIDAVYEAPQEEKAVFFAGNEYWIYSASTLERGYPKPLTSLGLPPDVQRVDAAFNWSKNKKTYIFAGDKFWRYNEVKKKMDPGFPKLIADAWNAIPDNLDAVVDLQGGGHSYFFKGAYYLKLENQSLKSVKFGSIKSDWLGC
T1 sequence (P49327 whole entry, the tested form may be a part): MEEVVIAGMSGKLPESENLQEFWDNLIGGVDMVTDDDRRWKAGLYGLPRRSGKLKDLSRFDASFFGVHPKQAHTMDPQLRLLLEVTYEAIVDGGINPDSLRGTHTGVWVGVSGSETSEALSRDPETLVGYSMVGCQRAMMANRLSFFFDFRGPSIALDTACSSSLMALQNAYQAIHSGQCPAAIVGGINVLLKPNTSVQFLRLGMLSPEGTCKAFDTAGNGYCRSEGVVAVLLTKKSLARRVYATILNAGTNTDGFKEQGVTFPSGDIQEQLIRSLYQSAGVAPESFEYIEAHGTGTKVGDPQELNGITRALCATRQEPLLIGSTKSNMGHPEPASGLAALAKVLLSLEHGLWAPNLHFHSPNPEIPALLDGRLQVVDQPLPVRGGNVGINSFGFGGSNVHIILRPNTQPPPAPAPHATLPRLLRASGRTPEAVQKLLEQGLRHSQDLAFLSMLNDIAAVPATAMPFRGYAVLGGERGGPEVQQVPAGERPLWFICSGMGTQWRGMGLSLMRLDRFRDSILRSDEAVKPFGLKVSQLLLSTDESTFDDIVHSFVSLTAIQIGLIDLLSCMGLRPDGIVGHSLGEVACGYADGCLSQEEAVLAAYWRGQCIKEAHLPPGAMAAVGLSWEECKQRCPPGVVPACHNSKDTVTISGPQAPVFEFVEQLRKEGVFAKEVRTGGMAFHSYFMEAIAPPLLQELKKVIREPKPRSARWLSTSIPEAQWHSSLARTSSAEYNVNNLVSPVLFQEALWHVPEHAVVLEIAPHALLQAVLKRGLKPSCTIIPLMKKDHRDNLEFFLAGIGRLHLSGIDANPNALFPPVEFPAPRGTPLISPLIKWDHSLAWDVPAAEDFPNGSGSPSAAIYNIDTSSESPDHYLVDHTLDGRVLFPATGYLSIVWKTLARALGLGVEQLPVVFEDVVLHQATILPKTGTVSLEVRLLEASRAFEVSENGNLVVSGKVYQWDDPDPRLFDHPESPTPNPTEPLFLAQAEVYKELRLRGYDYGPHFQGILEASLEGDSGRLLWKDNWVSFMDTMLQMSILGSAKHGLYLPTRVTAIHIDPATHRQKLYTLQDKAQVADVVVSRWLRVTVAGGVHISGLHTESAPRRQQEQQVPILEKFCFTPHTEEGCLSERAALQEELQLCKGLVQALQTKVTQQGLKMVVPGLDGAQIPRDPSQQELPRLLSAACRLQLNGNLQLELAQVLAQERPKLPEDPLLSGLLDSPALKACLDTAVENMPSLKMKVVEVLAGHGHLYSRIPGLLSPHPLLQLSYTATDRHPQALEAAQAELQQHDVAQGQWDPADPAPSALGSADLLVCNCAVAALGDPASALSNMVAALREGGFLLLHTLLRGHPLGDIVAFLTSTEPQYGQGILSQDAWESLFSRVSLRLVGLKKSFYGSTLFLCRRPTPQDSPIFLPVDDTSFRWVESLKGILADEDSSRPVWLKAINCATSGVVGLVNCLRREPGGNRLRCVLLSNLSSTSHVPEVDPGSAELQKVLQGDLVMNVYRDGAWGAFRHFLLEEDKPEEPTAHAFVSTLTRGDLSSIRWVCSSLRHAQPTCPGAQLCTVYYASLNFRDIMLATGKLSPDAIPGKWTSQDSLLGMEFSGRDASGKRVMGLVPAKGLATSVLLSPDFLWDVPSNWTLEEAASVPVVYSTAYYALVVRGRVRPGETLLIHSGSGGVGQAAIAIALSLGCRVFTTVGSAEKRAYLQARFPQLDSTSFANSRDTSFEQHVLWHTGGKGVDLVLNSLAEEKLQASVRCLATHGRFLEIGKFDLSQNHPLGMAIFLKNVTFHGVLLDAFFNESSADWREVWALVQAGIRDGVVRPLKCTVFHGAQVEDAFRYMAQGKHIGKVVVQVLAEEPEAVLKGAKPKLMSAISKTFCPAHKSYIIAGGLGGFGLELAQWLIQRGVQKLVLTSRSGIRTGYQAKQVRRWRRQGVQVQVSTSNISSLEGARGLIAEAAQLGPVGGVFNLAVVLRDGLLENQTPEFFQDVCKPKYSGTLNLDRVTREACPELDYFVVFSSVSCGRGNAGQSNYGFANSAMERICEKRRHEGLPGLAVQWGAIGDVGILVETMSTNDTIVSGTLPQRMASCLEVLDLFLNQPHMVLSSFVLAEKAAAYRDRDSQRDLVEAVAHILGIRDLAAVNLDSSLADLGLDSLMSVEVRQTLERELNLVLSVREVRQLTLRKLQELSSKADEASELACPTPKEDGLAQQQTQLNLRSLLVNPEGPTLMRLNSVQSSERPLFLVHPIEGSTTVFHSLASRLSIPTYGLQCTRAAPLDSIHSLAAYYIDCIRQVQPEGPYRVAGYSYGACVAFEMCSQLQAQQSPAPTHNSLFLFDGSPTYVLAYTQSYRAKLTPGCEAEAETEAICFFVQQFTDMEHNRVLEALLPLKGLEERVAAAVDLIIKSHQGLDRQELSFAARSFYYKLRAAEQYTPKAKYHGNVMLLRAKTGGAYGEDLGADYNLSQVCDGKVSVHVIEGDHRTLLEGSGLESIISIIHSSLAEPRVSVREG
Chain of Induced myeloid leukemia cell differentiation protein Mcl-1 (Q07820 whole entry): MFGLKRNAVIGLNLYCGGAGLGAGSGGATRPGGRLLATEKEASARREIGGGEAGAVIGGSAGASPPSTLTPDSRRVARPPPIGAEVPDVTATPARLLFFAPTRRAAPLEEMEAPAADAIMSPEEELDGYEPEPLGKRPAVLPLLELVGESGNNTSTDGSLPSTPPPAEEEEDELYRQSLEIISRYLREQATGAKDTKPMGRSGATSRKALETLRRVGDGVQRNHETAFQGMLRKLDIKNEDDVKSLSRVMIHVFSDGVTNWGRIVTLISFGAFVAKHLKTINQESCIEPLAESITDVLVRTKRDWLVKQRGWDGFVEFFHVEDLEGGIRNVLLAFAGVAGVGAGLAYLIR
Chain of DNA dC->dU-editing enzyme APOBEC-3G (Q9HC16 whole entry): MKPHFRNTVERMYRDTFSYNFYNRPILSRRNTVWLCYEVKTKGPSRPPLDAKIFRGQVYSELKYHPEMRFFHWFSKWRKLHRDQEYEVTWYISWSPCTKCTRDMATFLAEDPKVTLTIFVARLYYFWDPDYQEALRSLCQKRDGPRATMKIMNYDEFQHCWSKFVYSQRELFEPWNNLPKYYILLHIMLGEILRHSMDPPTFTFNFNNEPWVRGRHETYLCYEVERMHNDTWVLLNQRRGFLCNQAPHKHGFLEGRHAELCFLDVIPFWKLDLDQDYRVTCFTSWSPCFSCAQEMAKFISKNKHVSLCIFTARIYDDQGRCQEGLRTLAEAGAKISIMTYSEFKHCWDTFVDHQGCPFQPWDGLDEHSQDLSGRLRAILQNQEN
Chain of DNA dC->dU-editing enzyme APOBEC-3A (P31941 whole entry): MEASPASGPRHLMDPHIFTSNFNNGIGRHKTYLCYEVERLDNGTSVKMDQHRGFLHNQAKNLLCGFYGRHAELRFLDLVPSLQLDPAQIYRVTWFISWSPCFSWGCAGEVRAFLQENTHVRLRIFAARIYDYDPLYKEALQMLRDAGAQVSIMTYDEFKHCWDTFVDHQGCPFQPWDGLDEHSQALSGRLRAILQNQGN

## Nn1c(C2COc3ccccc3O2)n[nH]c1=S (stereo not given)
[1]
  IC50: > 100 µM (inactive)
[2]
  IC50: 5.09 µM (active)

## O=C(c1ccccc1)C(CCC(CN1CCOCC1)C(=O)c1ccccc1)CN1CCOCC1 (stereo not given)
[3]
  AC50: 12.6 µM (active)
INS1
  AC50: > 120 µM (inactive)
HEK293
  AC50: 6.35 µM (active)
[4]
  AC50: 12.8 µM (active)
[5]
  AC50: 11.9 µM (active)
[6]
  EC50: 11.1 µM (active)
[7]
  EC50: 6.43 µM (active)

## CC(C)(C)c1ccc(C(=O)OCCNC(=O)c2c(Cl)nc3ccccn23)cc1
Fatty acid synthase [8]
  IC50: 4.36 µM (active)
Fatty acid synthase [9]
  IC50: 5.51 µM (active)

## CCn1cc(C(=O)O)c(=O)c2cc(F)c(N3CCN(C(=S)NC(=O)c4ccccc4F)CC3)cc21
[10]
  IC50: 6.64 µM (active)

## CCC(C)NCCCOc1cc(Cl)ccc1Cl (stereo not given)
[11]
  AC50: > 20 µM (inactive)

## Cc1cc(N2CCN(c3nc(-c4ccc([N+](=O)[O-])cc4)cs3)CC2)c2ccccc2n1
[10]
  IC50: 4.77 µM (active)

## O=C(Nc1ccc2c(c1)CCC2)c1cc(S(=O)(=O)N2CCN(c3ccccc3)CC2)ccc1Cl
Prothrombin
  IC50: 31.6 µM (active)
[12]
  IC50: 50.9 µM (active)
[13]
  IC50: > 100 µM (inactive)

## O=C(NC(=S)Nc1nc2c(s1)CCCC2)c1ccccc1
[14]
  EC50: 0.313 µM (active)
H4
  EC50: < 0.1 µM (active)
[15]
  EC50: 0.32 µM (active)
[16]
  EC50: 0.341 µM (active)
[17]
  EC50: 0.143 µM (active)

## NC(=O)c1sc2nc3c(c(-c4cccs4)c2c1N)CCCC3
[18]
  EC50: 36.5 µM (active)
[19]
  EC50: < 0.1 µM (active)
[20]
  EC50: 118 µM (active)
[21]
  EC50: 16.1 µM (active)
[22]
  EC50: 0.125 µM (active)

## Cc1cc(C)cc(NC(=O)/C(C#N)=C/c2cn(CC(=O)NCc3ccco3)c3ccccc23)c1
[18]
  EC50: 8.2 µM (active)
INS1
  AC50: 3.92 µM (active)
[20]
  EC50: 10.6 µM (active)

## NC1=NC(=O)/C(=C/c2cn(CCC(=O)O)nc2-c2ccc(Cl)cc2)S1
[23]
  IC50: 4.92 µM (active)
Prothrombin
  IC50: 40.4 µM (active)
[12]
  IC50: 44.7 µM (active)
[13]
  IC50: > 100 µM (inactive)

## COC(=O)C1C(=O)c2c([nH]c(C(=O)OCCSC)c2C)CC1C (stereo not given)
[14]
  EC50: 1.34 µM (active)
H4
  EC50: 31.9 µM (active)
[24]
  EC50: < 0.1 µM (active)
[15]
  EC50: > 12 µM (not active)
[16]
  EC50: 0.963 µM (active)
[17]
  EC50: 21.5 µM (active)
